According to patent US20240041042A1, “1-(PYRIDYL)-5-AZINYLPYRAZOLE DERIVATIVES, AND THEIR USE FOR CONTROL OF UNDESIRED PLANT GROWTH” (Bayer Aktiengesellschaft, priority 2020, published 2024):
Read-outs that look alike come from different tables or passages of the source.

Key:
Type in all cases: in vivo
Zea mays (ZEAMX) = conditions: for Post-emergence action against ZEAMX in %: crop plant compatibility, effect vs untreated controls; for Post-emergence action against ZEAMX in % (crop plant compatibility): 20 g/ha, effect in comparison to untreated controls
Outline: (§1)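 Test crops were treated 2 to 3 weeks after sowing, once they reached one leaf, by spraying compound in water with 0.5% additive at 600 l/ha. Visual scoring compared them with untreated controls roughly 3 weeks on, and appendices a, b and c denote different doses.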

[1] = system: Triticum aestivum (TRZAS); conditions: crop plant compatibility; for Pre-emergence action against TRZAS: 20 g/ha, effect vs untreated controls
Outline: (§2)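 Crop injury rated visually in percent against untreated plants roughly 3 weeks after treatment (0% no effect, 100% plants dead). Compounds, as WP or EC with 0.5% additive in 600 l/ha water, were applied to the covering soil right after sowing; greenhouse growth. Suffixes a, b, c denote different dosages.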

Glycine max (GLXMA) = conditions: 20 g/ha; crop plant compatibility, effect vs untreated controls
Outline: as §2

[2] = system: Triticum aestivum (TRZAS); conditions: crop plant compatibility, effect vs untreated controls
Outline: as §1

Brassica napus (BRSNW) = conditions: 20 g/ha, crop plant compatibility, in comparison to untreated controls
Outline: as §2

Post-emergence action against ZEAMX in % (Zea mays (ZEAMX); 80 g/ha) [%]	Pre-emergence action against TRZAS [1] [%]	Post-emergence action against ZEAMX in % (crop plant compatibility) (Zea mays (ZEAMX)) [%]	Post-emergence action against TRZAS in % ([2]; 20 g/ha) [%]	SMILES	other results
–	10	10	10	O=C(O)COc1nn(-c2ncccc2F)c(-c2ccc(F)nc2)c1Br [Example I-17]	Pre-emergence action against GLXMA (Glycine max (GLXMA)): 10%
0	–	–	–	COC(=O)COc1nn(-c2ncccc2F)c(-c2ccc(F)nc2)c1Br [Example I-07]	–

The next lines start with the compound.

SMILES	Post-emergence action against ZEAMX in % (Zea mays (ZEAMX); 80 g/ha) [%]	Pre-emergence action against TRZAS [1] [%]	Post-emergence action against ZEAMX in % (crop plant compatibility) (Zea mays (ZEAMX)) [%]	Post-emergence action against TRZAS in % ([2]; 20 g/ha) [%]	other results
C[C@@H](Oc1nn(-c2ncccc2F)c(-c2ccc(F)nc2)c1Br)C(=O)O [Example I-10]	0	–	–	–	Post-emergence action against ZEAMX in % (Zea mays (ZEAMX); 320 g/ha): 20%
COC(=O)COc1nn(-c2ncccc2F)c(-c2cncc(F)c2)c1Br [Example I-16]	20	10	10	20	Pre-emergence action against BRSNW in % (Brassica napus (BRSNW)): 10%; Pre-emergence action against TRZAS in % ([1]; pre-emergence, 80 g/ha, in comparison to untreated controls): 20%
COC(=O)CNC(=O)[C@@H](C)Oc1nn(-c2ccccn2)c(-c2cncc(F)c2)c1Br [Example I-187]	–	–	–	–	Post-emergence action against TRZAS in % ([2]; 80 g/ha): 20%
